{"source": "paper PMC3089953", "about": "(Bioorganic & medicinal chemistry letters, 2009)", "key": {"in vitro": {"assay": "in vitro", "type": "cell-based", "details": "human, CEM cells (T-cell-derived cell line)"}, "[1]": {"assay": "Cytotoxicity in Vero cells", "type": "cell-based, African green monkey", "details": "African green monkey, Vero cells (kidney epithelial cells)"}, "adenosine deaminase": {"tested_on": "adenosine deaminase", "assay": "Conversion by purified adenosine deaminase", "details": "pH 7.4, 25 °C; for Conversion to AZG by adenosine deaminase: 0.2 units per mL enzyme, 120 min, 50 μM nucleoside"}, "PBM cells [2]": {"tested_on": "PBM cells", "assay": "Intracellular metabolism in PBM cells", "type": "in vitro ADME, human", "details": "50 μM for 4 h at 37 °C, LC/MS/MS"}, "PBM, CEM, and Vero cells": {"tested_on": "PBM, CEM, and Vero cells", "assay": "Cytotoxicity in PBM, CEM and Vero cells", "type": "cell-based"}, "CEM cells": {"tested_on": "CEM cells", "assay": "in vitro", "type": "cell-based", "details": "CEM cells"}, "Vero cells": {"tested_on": "Vero cells", "assay": "Cytotoxicity in Vero cells", "type": "cell-based, African green monkey", "details": "Vero cells"}, "[3]": {"details": "cited from earlier work"}, "PBM cells [4]": {"tested_on": "PBM cells", "assay": "Cytotoxicity in PBM cells", "type": "cell-based", "details": "human"}, "HIV-1LAI": {"tested_on": "HIV-1LAI", "assay": "Anti-HIV activity against HIV-1LAI in human PBM cells", "type": "cell-based"}}, "note": "Entries after “also recorded” stand apart in the source; their conditions may differ.", "data": [{"smiles": "[N-]=[N+]=N[C@H]1C[C@H](n2cnc3c(NCCO)nc(N)nc32)O[C@@H]1CO", "note": "[Compound 26]", "values": [{"measurement": "IC50", "setting": "in vitro", "result": "> 100", "unit": "µM"}, {"measurement": "IC50", "setting": "[1]", "result": "> 100", "unit": "µM"}]}, {"smiles": "[N-]=[N+]=N[C@H]1C[C@H](n2cnc3c(N)nc(Cl)nc32)O[C@@H]1CO", "note": "[Compound 31]", "values": [{"measurement": "IC50", "setting": "in vitro", "result": "> 100", "unit": "µM"}, {"measurement": "IC50", "setting": "[1]", "result": "> 100", "unit": "µM"}]}, {"smiles": "Nc1ncnc2c1ncn2[C@H]1C[C@H](O)[C@@H](CO)O1", "note": "[2′-Deoxyadenosine, reference compound]", "values": [{"measurement": "Deaminated to 2′-deoxyinosine", "setting": "adenosine deaminase; 7 min with 0.002 units of enzyme, 50 μM, positive control", "result": 59, "unit": "%"}]}, {"smiles": "CN(C)c1nc(Cl)nc2c1ncn2[C@H]1C[C@H](N=[N+]=[N-])[C@@H](CO)O1", "note": "[Compound 34]", "values": [{"measurement": "IC50", "setting": "in vitro", "result": "> 100", "unit": "µM"}, {"measurement": "IC50", "setting": "[1]", "result": "> 100", "unit": "µM"}]}, {"smiles": "[N-]=[N+]=N[C@H]1C[C@H](n2cnc3c(N)nc(N)nc32)O[C@@H]1CO", "note": "[Compound 12]", "values": [{"measurement": "Conversion to AZG-TP in PBM cells", "setting": "PBM cells [2]", "result": "converted to AZG-TP"}, {"measurement": "Conversion to AZG by adenosine deaminase", "setting": "adenosine deaminase", "result": "substantially or completely converted to AZG; also recorded: substantially converted to AZG"}]}, {"smiles": "COc1nc(N)c2ncn([C@H]3C[C@H](N=[N+]=[N-])[C@@H](CO)O3)c2n1", "note": "[Compound 38]", "values": [{"measurement": "IC50", "setting": "in vitro", "result": "> 100", "unit": "µM"}, {"measurement": "IC50", "setting": "[1]", "result": "> 100", "unit": "µM"}]}, {"smiles": "COc1nc(NC2CC2)c2ncn([C@H]3C[C@H](N=[N+]=[N-])[C@@H](CO)O3)c2n1", "note": "[Compound 40]", "values": [{"measurement": "IC50", "setting": "in vitro", "result": "> 100", "unit": "µM"}, {"measurement": "IC50", "setting": "[1]", "result": "> 100", "unit": "µM"}]}, {"smiles": "[N-]=[N+]=N[C@H]1C[C@H](n2cnc3c(Cl)nc(F)nc32)O[C@@H]1CO", "note": "[Compound 37]", "values": [{"measurement": "Cytotoxicity", "setting": "PBM, CEM, and Vero cells", "result": "increase in cytotoxicity"}]}, {"smiles": "C=CCN(C)c1nc(N)nc2c1ncn2[C@H]1C[C@H](N=[N+]=[N-])[C@@H](CO)O1", "note": "[Compound 21]", "values": [{"measurement": "Toxicity in CEM cells", "setting": "CEM cells", "result": "increased toxicity"}, {"measurement": "Toxicity in Vero cells", "setting": "Vero cells", "result": "increased toxicity"}]}, {"smiles": "Cc1cn([C@H]2C[C@H](N=[N+]=[N-])[C@@H](CO)O2)c(=O)[nH]c1=O", "note": "[AZT, 3′-Azido-3′-deoxythymidine]", "values": [{"measurement": "Bone marrow toxicity, share of the patients", "setting": "[3]", "result": "about 5%"}, {"measurement": "IC50", "setting": "PBM cells [4]", "result": "> 100", "unit": "µM"}]}, {"smiles": "[N-]=[N+]=N[C@H]1C[C@H](n2cnc3c(NC4CC4)nc(Cl)nc32)O[C@@H]1CO", "note": "[Compound 33]", "values": [{"measurement": "IC50", "setting": "in vitro", "result": "> 100", "unit": "µM"}, {"measurement": "IC50", "setting": "[1]", "result": "> 100", "unit": "µM"}]}, {"smiles": "C=CCNc1nc(N)nc2c1ncn2[C@H]1C[C@H](N=[N+]=[N-])[C@@H](CO)O1", "note": "[Compound 20]", "values": [{"measurement": "Conversion to AZG-TP in PBM cells", "setting": "PBM cells [2]", "result": "converted to AZG-TP"}, {"measurement": "Detection of the nucleoside analog in the triphosphate (TP) form", "setting": "PBM cells [2]", "result": "unable to detect"}, {"measurement": "Conversion to AZG by adenosine deaminase", "setting": "adenosine deaminase", "result": "substantially or completely converted to AZG"}]}, {"smiles": "COc1nc(N)nc2c1ncn2[C@H]1C[C@H](N=[N+]=[N-])[C@@H](CO)O1", "note": "[Compound 17]", "values": [{"measurement": "Conversion to AZG-TP in PBM cells", "setting": "PBM cells [2]", "result": "converted to AZG-TP"}, {"measurement": "Detection of the nucleoside analog in the triphosphate (TP) form", "setting": "PBM cells [2]", "result": "unable to detect"}, {"measurement": "Conversion to AZG by adenosine deaminase", "setting": "adenosine deaminase", "result": "substantially or completely converted to AZG"}]}, {"smiles": "[N-]=[N+]=N[C@H]1C[C@H](n2cnc3c(Cl)nc(N)nc32)O[C@@H]1CO", "note": "[Compound 10]", "values": [{"measurement": "Conversion to AZG-TP in PBM cells", "setting": "PBM cells [2]", "result": "converted to AZG-TP"}, {"measurement": "Detection of the nucleoside analog in the triphosphate (TP) form", "setting": "PBM cells [2]", "result": "unable to detect"}, {"measurement": "Conversion to AZG by adenosine deaminase", "setting": "adenosine deaminase", "result": "substantially or completely converted to AZG"}]}, {"smiles": "[N-]=[N+]=N[C@H]1C[C@H](n2cnc3c(NC4CC4)nc(N)nc32)O[C@@H]1CO", "note": "[Compound 19]", "values": [{"measurement": "Conversion to AZG-TP in PBM cells", "setting": "PBM cells [2]", "result": "converted to AZG-TP"}, {"measurement": "Detection of the nucleoside analog in the triphosphate (TP) form", "setting": "PBM cells [2]", "result": "unable to detect"}, {"measurement": "Conversion to AZG by adenosine deaminase", "setting": "adenosine deaminase", "result": "substantially or completely converted to AZG"}, {"measurement": "IC50", "setting": "in vitro", "result": "> 100", "unit": "µM"}, {"measurement": "IC50", "setting": "[1]", "result": "> 100", "unit": "µM"}]}, {"smiles": "COc1nc(OC)c2ncn([C@H]3C[C@H](N=[N+]=[N-])[C@@H](CO)O3)c2n1", "note": "[Compound 39]", "values": [{"measurement": "No cytotoxicity up to", "setting": "PBM, CEM, and Vero cells", "result": "> 100", "unit": "µM"}, {"measurement": "IC50", "setting": "in vitro", "result": "> 100", "unit": "µM"}, {"measurement": "IC50", "setting": "[1]", "result": "> 100", "unit": "µM"}]}, {"smiles": "C#CCNc1nc(N)nc2c1ncn2[C@H]1C[C@H](N=[N+]=[N-])[C@@H](CO)O1", "note": "[Compound 22]", "values": [{"measurement": "Anti-HIV activity", "setting": "HIV-1LAI", "result": "significantly less active"}, {"measurement": "Cytotoxicity", "setting": "PBM, CEM, and Vero cells", "result": "no toxicity"}]}, {"smiles": "CN(C)c1nc(N)nc2c1ncn2[C@H]1C[C@H](N=[N+]=[N-])[C@@H](CO)O1", "note": "[Compound 18]", "values": [{"measurement": "Conversion to AZG-TP in PBM cells", "setting": "PBM cells [2]", "result": "converted to AZG-TP"}, {"measurement": "Detection of the nucleoside analog in the triphosphate (TP) form", "setting": "PBM cells [2]", "result": "unable to detect"}, {"measurement": "Conversion to AZG by adenosine deaminase", "setting": "adenosine deaminase", "result": "resistant to adenosine deaminase"}, {"measurement": "IC50", "setting": "in vitro", "result": "> 100", "unit": "µM"}, {"measurement": "IC50", "setting": "[1]", "result": "> 100", "unit": "µM"}]}, {"smiles": "COc1nc(F)nc2c1ncn2[C@H]1C[C@H](N=[N+]=[N-])[C@@H](CO)O1", "note": "[Compound 36]", "values": [{"measurement": "IC50", "setting": "in vitro", "result": "> 100", "unit": "µM"}, {"measurement": "IC50", "setting": "[1]", "result": "> 100", "unit": "µM"}]}, {"smiles": "COc1nc(Cl)nc2c1ncn2[C@H]1C[C@H](N=[N+]=[N-])[C@@H](CO)O1", "note": "[Compound 30]", "values": [{"measurement": "IC50", "setting": "in vitro", "result": "> 100", "unit": "µM"}, {"measurement": "IC50", "setting": "[1]", "result": "> 100", "unit": "µM"}]}, {"smiles": "[N-]=[N+]=N[C@H]1C[C@H](n2cnc3c(N)nc(F)nc32)O[C@@H]1CO", "note": "[Compound 35]", "values": [{"measurement": "Cytotoxicity", "setting": "PBM, CEM, and Vero cells", "result": "increase in cytotoxicity"}]}, {"smiles": "CC(C)(CO)Nc1nc(N)nc2c1ncn2[C@H]1C[C@H](N=[N+]=[N-])[C@@H](CO)O1", "note": "[Compound 24]", "values": [{"measurement": "IC50", "setting": "in vitro", "result": "> 100", "unit": "µM"}, {"measurement": "IC50", "setting": "[1]", "result": "> 100", "unit": "µM"}]}]}
